{
  "source": "paper PMC10871713",
  "about": "(Materials today. Nano, 2023)",
  "key": {"streptavidin": {"tested_on": "streptavidin", "conditions": "AFM; streptavidin/biotin partners (Beebe et al.) ref 40, 41; cited from earlier work"}, "[1]": {"conditions": "cyclic peptide; cited from earlier work"}, "CJ^OPT protein crystal": {"tested_on": "CJ^OPT protein crystal", "parameters": "species or system Campylobacter jejuni"}, "[2]": {"tested_on": "adipose-derived stem cells (ADSCs)", "experiment": "ADSC attachment and spreading on protein crystals", "assay_type": "cell-based, human", "conditions": "protein crystal surface passivated by covalent attachment of PEG; data not shown"}},
  "note": "Positions of bridges follow the written chain, without caps; N, C: chain ends. No end group written: not given here.",
  "data": [
    {"compound": "O=C(O)CCCC[C@@H]1SC[C@@H]2NC(=O)N[C@@H]21", "note": "[biotin]", "values": [
      {"measurement": "ligand-receptor bond-rupture force", "setting": "streptavidin", "value": "442 ± 17", "unit": "pN"}
    ]},
    {"compound": "CWDDGWLC (disulfide 1-8 (inferred)) [IntP]", "values": [
      {"measurement": "binding to RGD", "setting": "[1]", "value": "binds RGD"}
    ]},
    {"compound": "poly(ethylene glycol) [PEG]", "values": [
      {"measurement": "adsorption of PEG from solution by crystals", "setting": "CJ^OPT protein crystal", "value": "adsorbed by the crystals from solution within minutes"},
      {"measurement": "cell adhesion", "setting": "[2]", "value": "no cell adhesion"}
    ]}
  ]
}
